According to US9149488B2, “Pharmaceutical composition and use of diethyl (2-cyanoethyl)phosphonate” (Olatec Industries LLC, priority 2013, dated 2015):
Where two headings read alike, the source gives them in different places.

Key:
[1] = system: formalin-induced paw licking
Description: The test compound diethyl(2-cyanoethyl)phosphonate (375 mM in vehicle, n=16) and vehicle control (acetone:ethanol 1:1, n=16) were administered topically by submerging the mouse left hind paw in the respective solution for about 30 seconds. The paw was then withdrawn and wiped with tissue to avoid excess dermal drying.
Positive control morphine was administered by subcutaneous injection at 4 mg/kg with a volume of 4 mL/kg to mice (n=16).
Morphine was subcutaneously administered once 15 minutes before formalin injection. The test compounds and vehicle control were topically administered twice (BID), at 90 and 15 minutes before formalin injection.
Following formalin injection, animals were placed in individual cages, and manually observed for 60 minutes. The licking events were recorded in five minute intervals continuously for a total of 40 minutes.
The number of licking events per minute was calculated between 0-10 minutes and 10-40 minutes for vehicle, positive control, and test compound. A two-sample t-test was done to compare the vehicle group with the test compound group. Significance is set at P<0.05 level. The same statistics were done comparing the vehicle group with the positive control group.

[2] = system: tail flick response to heat stimulus (49° C. water bath); assay: Tail flick test in mice (oral administration); assay type: in vivo
Description: Tail flick test is a test of the pain response in animals. Tail flick test is used in basic pain research and to measure the effectiveness of analgesics, by observing the tail flick reaction to heat in an animal. This test assesses the nociceptive response to a local pain stimulus, and the ability of a drug to inhibit this response.
Vehicle control (water) and test compound diethyl(2-cyanoethyl)phosphonate in water were administered by oral gavage to mice with a volume of 10 mL/kg, twice, at 60 and 15 minutes before the first tail flick measurement. The test compound was administered at a dosage of 10, 30, or 100 mg/kg in water. The positive control compound morphine was administered by subcutaneous injection at 8 mg/kg with a volume of 8 mL/kg, at 15 minutes before the first tail flick measurement. Each group had 10 mice.
The response of mice to heat stimulus was evaluated by measuring the time of tail-flick or tail-flick latency from 49° C. water bath. Briefly, the animal was placed in a restrainer with its tail hanging down. Approximately 2 inches of the tail was immersed in a beaker of water at 38±1° C. for about 30 seconds, and this was done twice to acclimate the animal to the procedure.
Subsequently, approximately 2 inches of the tail was immersed in a beaker of water at 49±1° C., at which point a timer was started.
Tail flick measurements were made 60, 80, 100, and 120 minutes post administration of the first dosage of test compound. An ANOVA was done, and if p<0.05, a Dunnett's t test was employed to calculate significant difference between vehicle control and test compound treated groups. A pairwise Student's t test was used to calculate differences between the morphine group and the control group. […] Analysis with p-values <0.05 is considered significant.

[3] = system: formalin-induced paw licking; assay: Formalin test in mice (oral administration); assay type: in vivo, Male CD-1 mice
Description: Formalin test is a model of continuous pain resulting from formalin-induced tissue injury. Nociceptive and inflammatory pain was induced by injection of a dilute formalin solution into the paw, resulting in nocifensive behavior including paw flinching. The formalin model encompasses inflammatory, neurogenic, and central mechanism of pain. The early phase of pain (from 0 to about 10 minutes) is due to nociceptive mechanism and the late phase of pain (from 10-40 minutes) is due to a combination of inflammatory pain and nociceptive mechanism. Pain behavior is assessed using manual paw licking measurements. The endpoints of the study are the number of paw licking events. (Hunskaar et al., Pain, 30:103-114, 1987; Li et al., Molecular Pain, 6:11, 2010)
Male CD-1 mice, about 34 g, were used in the study. Mice had free access to food and water, were maintained on a 12 hour: 12 hour light/dark schedule for the entire duration of the study, and housed in soft bedding five per cage.
Immediately prior to testing (at time 0), mice were restrained in a cloth and injected with 20 μL of a 5% formalin solution, subcutaneously into the dorsal surface of the left hind paw. Vehicle control (n=10, water) and test compound diethyl(2-cyanoethyl)phosphonate (n=9, in water) and were administered by oral gavage with a volume of 10 mL/kg to mice. The amounts of test compound were 10, 30, or 100 mg/kg per dose.
Positive control morphine was administered by subcutaneous injection at 4 mg/kg with a volume of 4 mL/kg to mice (n=10). […] The purpose of morphine is not to serve as a comparison with the test compound.
Morphine was subcutaneously administered once 15 minutes before formalin injection. The test compounds and vehicle control were orally administered twice (BID), at 60 and 15 minutes before formalin injection at time zero.
Following formalin injection, animals were placed in individual cages, and manually observed for 60 minutes. The licking events were recorded in five minute intervals continuously for a total of 60 minutes.
The number of licking events per minute was calculated between 0-10 minutes and 10-40 minutes for vehicle, positive control, and test compound. An ANOVA was done, and if p<0.05, a Dunnett's t test was employed to calculate significant difference between vehicle control and test compound treated groups. A pairwise Student's t test was used to calculate differences between the morphine group and the control group. Significance is set at P<0.05 level.

[4] = system: arachidonic acid-induced ear swelling; assay: Arachidonic acid-induced ear swelling in mice (intraperitoneal administration); assay type: in vivo; settings: measured at 90 minutes
Description: The protocols of this experiment were similar to Example 3, except the following differences. Test substance diethyl(2-cyanoethyl)phosphonate was dissolved in PBS to generate 1, 3 and 10 mg/mL testing solutions. Vehicle (PBS) at 10 mL/kg and diethyl(2-cyanoethyl)phosphonate at 10 mL/kg (10, 30, and 100 mg/kg) were administered intraperitoneally at 1 hour, and again 15 minutes before arachidonic acid (0.5 mg/ear) challenge. The positive control dexamethasone was administered orally 3 hours before arachidonic acid.
An ANOVA was done, and if p<0.05, a Dunnett's t test was employed to calculate significant difference between vehicle control and treated groups. Significance is set at P<0.05 level.
An ANOVA was done, and if p<0.05, a Dunnett's t test was employed to calculate significant difference between vehicle control and test compound treated groups. A pairwise Student's t test was used to calculate differences between the dexamethasone group and the control group. Significance is set at P<0.05 level.

[5] = system: arachidonic acid-induced ear swelling; assay: Topical arachidonic acid-induced ear swelling model in mice (topical administration); assay type: in vivo, Male ICR mice
Description: Diethyl(2-cyanoethyl)phosphonate, was obtained from Sigma-Aldrich and used in this experiment.
The test compound, indomethacin (positive control), and vehicle (acetone:ethanol/1:1) were evaluated for anti-inflammatory activity in a topical arachidonic acid-induced ear swelling model in mice.
Male ICR mice weighing 22±2 g were used and randomly divided; the test compound and vehicle control had 10 mice, and indomethacin had 5 mice. Arachidonic Acid (0.5 mg in 20 μl of acetone:ethanol/1:1) was applied topically to the anterior and posterior surfaces of the right ear of each mice. Test substances (in vehicle) and vehicle, as listed in Table 1 were similarly applied 30 min before and 15 min after arachidonic acid application. The thickness of the right ear and the left ear was measured and the difference calculated as an indication of the inflammation in the right ear. Ear swelling was measured by a Dyer model micrometer gauge at 60 and 90 minutes after arachidonic acid application as an index of inflammation. Percent inhibition was calculated according to the formula: Ic−It/Ic×100, where Ic and It refers to increase of ear thickness (mm) in control and treated mice, respectively. An ANOVA was done, and if p<0.05, a Dunnett's t test was employed to calculate significant difference between vehicle control and test compound treated groups. […]

[6] = system: IL-6, TNFα, IFNγ, MIP-2 and RANTES; assay: Pro-inflammatory cytokine release in rat challenged in vivo with lipopolysaccharide; settings: given orally to rat, then lipopolysaccharide challenge in vivo

SMILES: CN1CC[C@]23c4c5ccc(O)c4O[C@H]2[C@@H](O)C=C[C@H]3[C@H]1C5 [Morphine, morphine, reference compound]
- Licks per min (Between 0-10 min) ([1]; mouse, in vivo): 2.5 Licks per min
- Licks per min (Between 10-40 min) ([1]; mouse, in vivo): 0.53 Licks per min
- Reduction in the number of events vs vehicle ([1]; mouse, in vivo): statistically significant (p<0.05) reductions
- Tail flick latency compared with vehicle-treated mice ([2]; mouse, in vivo): statistically significant tail flick latency at all measured time points
- Duration of efficacy ([3]; mouse, in vivo): did not last after 40 minutes
- Licks per min (Between 0-10 min) ([3]; mouse, in vivo): 2.1 Licks per min
- Licks per min (Between 10-40 min) ([3]; mouse, in vivo): 0.47 Licks per min
- Reduction in the number of events vs vehicle ([3]; mouse, in vivo): statistically significant (p<0.05) reductions

SMILES: CCOP(=O)(CCC#N)OCC [Diethyl (2-cyanoethyl) phosphonate, Diethyl(2-cyanoethyl)phosphonate]
- % Inhibition of ear swelling ([4]; 10 mg/kg intraperitoneally at 1 hour and 15 minutes before arachidonic acid): −8%
- % Inhibition of ear swelling ([4]; 30 mg/kg intraperitoneally at 1 hour and 15 minutes before arachidonic acid): 0%
- % Inhibition of ear swelling ([4]; 100 mg/kg intraperitoneally at 1 hour and 15 minutes before arachidonic acid): 34%
- % Inhibition of ear swelling ([4]; 100 mg/kg intraperitoneally at 1 hour and 15 minutes before arachidonic acid, listed as tested compound): 37%
- Licks per min (Between 0-10 min) ([1]; 375 mM topical BID (paw submerged), early phase): 4.0 Licks per min
- Licks per min (Between 10-40 min) ([1]; 375 mM topical BID (paw submerged), late phase): 1.1 Licks per min
- Difference in the number of events vs control ([1]; 375 mM topical, early phase 0-10 minutes): no statistically significant difference
- Reduction in the number of events vs vehicle ([1]; 375 mM topical, late phase 10-40 minutes): statistically significant (p<0.05) reduction
- Paw licking events after topical application alone ([1]; topical application without injection of formalin): negligible number of paw licking events
- Tail flick latency compared with vehicle-treated mice ([2]; 30 mg/kg oral, given twice, measured at 60, 80, 100, 120 minutes, FIG. 1): statistically significant tail flick latency at 60 and 80 minutes
- Tail flick latency compared with vehicle-treated mice ([2]; 100 mg/kg oral, given twice, measured at 60, 80, 100, 120 minutes, FIG. 1): statistically significant tail flick latency at 60 and 100 minutes
- Licks per min (Between 0-10 min) ([3]; 100 mg/kg oral BID, early phase): 3.1 Licks per min
- Licks per min (Between 10-40 min) ([3]; 100 mg/kg oral BID, late phase): 0.59 Licks per min
- Duration of efficacy ([3]; 100 mg/kg oral BID, after 40 minutes): did not last after 40 minutes
- Difference in the number of events vs control ([3]; 100 mg/kg oral BID, early phase 0-10 minutes): no statistically significant difference
- Reduction in the number of events vs vehicle ([3]; 100 mg/kg oral BID, late phase 10-40 minutes): statistically significant (p<0.05) reduction
- Anti-inflammatory activity in mouse ear swelling model ([5]; applied topically, inflammation induced by arachidonic acid): anti-inflammatory
- % Inhibition of ear swelling ([5]; topical, 375 mM in acetone:ethanol (1:1), 20 μL (1.4 mg/ear) applied twice, 90 minutes after arachidonic acid): 55%
- Inhibition of pro-inflammatory cytokine release (IL-6, TNFα, IFNγ, MIP-2 and RANTES) [6]: effective in inhibiting pro-inflammatory cytokine release
